Experimental data published in ChEMBL document CHEMBL2073758, “Agmatine is efficiently transported by non-neuronal monoamine transporters extraneuronal monoamine transporter (EMT) and organic cation transporter 2 (OCT2)” (J Pharmacol Exp Ther, 2003).

T1: Solute carrier family 22 member 3 (Rattus norvegicus, UniProt O88446)
T1 sequence (O88446 whole entry): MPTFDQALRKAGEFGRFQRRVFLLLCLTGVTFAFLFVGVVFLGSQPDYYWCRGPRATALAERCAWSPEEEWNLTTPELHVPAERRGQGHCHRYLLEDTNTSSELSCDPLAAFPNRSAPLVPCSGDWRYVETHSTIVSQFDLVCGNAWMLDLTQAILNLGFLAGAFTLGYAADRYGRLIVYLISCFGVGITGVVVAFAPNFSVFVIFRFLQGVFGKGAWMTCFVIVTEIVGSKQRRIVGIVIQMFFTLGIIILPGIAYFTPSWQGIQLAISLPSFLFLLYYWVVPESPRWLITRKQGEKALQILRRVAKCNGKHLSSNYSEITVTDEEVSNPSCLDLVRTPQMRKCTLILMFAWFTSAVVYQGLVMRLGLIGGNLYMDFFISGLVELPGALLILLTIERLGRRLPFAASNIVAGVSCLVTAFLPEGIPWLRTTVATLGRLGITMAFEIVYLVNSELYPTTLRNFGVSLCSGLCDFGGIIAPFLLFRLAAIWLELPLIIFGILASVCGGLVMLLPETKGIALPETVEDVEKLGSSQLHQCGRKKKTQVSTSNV

T2: Solute carrier family 22 member 1 (Homo sapiens, UniProt O15245)
T2 sequence (O15245 whole entry): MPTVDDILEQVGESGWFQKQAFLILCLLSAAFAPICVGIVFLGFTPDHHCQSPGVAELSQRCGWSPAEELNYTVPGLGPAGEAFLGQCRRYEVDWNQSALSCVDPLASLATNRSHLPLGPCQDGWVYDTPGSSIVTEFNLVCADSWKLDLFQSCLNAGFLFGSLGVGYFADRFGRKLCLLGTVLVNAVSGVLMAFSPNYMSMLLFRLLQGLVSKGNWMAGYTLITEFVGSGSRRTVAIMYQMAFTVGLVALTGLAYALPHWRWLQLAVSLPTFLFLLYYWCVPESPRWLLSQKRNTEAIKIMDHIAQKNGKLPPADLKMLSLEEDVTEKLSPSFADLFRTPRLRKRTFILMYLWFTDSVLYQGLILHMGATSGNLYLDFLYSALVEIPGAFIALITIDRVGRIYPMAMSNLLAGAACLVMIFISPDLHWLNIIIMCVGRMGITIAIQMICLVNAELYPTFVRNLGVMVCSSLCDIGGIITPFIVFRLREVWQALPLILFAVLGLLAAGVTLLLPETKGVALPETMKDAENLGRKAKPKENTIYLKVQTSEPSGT

T3: Solute carrier family 22 member 1 (Rattus norvegicus, UniProt Q63089)
T3 sequence (Q63089 whole entry): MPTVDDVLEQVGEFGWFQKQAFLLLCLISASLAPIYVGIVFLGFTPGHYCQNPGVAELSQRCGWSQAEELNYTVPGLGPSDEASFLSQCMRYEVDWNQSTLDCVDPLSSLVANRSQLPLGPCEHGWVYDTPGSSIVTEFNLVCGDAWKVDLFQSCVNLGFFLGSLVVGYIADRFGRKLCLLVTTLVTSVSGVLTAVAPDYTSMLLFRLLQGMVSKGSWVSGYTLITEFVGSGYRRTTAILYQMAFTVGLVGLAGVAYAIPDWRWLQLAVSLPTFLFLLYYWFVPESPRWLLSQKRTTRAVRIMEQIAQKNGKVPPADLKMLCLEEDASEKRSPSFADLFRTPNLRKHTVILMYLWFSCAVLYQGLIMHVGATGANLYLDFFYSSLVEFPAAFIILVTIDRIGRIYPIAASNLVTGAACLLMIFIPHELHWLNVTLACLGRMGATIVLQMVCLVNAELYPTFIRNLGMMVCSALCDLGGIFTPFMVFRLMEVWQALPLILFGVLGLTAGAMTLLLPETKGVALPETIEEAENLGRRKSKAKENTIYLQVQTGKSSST

T4: Solute carrier family 22 member 2 (Homo sapiens, UniProt O15244)
T4 sequence (O15244 whole entry): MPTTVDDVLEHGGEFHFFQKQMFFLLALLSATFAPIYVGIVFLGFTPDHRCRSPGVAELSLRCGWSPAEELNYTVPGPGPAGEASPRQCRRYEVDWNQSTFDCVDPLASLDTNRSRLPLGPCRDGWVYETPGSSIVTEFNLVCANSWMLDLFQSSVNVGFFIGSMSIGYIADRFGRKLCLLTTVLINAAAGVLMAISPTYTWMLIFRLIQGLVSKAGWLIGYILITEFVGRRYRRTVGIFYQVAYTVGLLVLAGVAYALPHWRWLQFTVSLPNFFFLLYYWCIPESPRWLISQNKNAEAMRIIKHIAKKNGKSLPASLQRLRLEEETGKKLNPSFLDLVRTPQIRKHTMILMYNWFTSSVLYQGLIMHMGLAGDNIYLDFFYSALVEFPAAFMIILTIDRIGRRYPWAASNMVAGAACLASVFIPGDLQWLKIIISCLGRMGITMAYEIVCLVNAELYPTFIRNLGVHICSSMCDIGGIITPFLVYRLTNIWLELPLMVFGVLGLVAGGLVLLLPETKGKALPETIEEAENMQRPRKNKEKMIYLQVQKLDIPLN

T5: Solute carrier family 22 member 2 (Rattus norvegicus, UniProt Q9R0W2)
T5 sequence (Q9R0W2 whole entry): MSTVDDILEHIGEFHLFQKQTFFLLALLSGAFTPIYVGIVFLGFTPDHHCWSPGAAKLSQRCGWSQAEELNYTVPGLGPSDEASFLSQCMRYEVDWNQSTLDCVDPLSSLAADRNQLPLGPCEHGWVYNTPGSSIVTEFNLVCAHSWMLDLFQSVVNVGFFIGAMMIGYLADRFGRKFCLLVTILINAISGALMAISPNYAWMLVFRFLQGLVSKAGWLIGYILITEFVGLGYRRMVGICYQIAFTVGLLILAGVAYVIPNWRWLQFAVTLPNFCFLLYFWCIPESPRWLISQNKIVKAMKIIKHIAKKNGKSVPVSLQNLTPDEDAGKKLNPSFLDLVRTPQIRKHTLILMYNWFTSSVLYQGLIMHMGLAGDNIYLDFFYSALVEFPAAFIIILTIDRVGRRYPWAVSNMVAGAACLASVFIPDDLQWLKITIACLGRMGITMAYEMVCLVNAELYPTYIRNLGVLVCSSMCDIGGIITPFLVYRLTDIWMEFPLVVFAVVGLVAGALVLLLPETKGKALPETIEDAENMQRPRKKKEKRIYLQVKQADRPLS


Assays:
[1] = target: T1, Solute carrier family 22 member 3; assay: (§1) TP_TRANSPORTER: uptake in OCT3-expressing 293 cells; format: functional, cell-based; conditions: human, hek293
[2] = target: T2, Solute carrier family 22 member 1; assay: (§2) TP_TRANSPORTER: uptake in OCT1-expressing 293 cells; format: functional, cell-based; conditions: hek293
[3] = target: T3, Solute carrier family 22 member 1; assay: as §2; format: functional, cell-based; conditions: human, hek293
[4] = target: T4, Solute carrier family 22 member 2; assay: (§3) TP_TRANSPORTER: uptake in OCT2-expressing 293 cells; format: functional, cell-based; conditions: hek293
[5] = target: T5, Solute carrier family 22 member 2; assay: as §3; format: functional, cell-based; conditions: human, hek293
[6] = target: T2, Solute carrier family 22 member 1; assay: (§4) TP_TRANSPORTER: inhibition of uptake of 0.1 uM MPP+ in OCT1-expressing 293 cells; format: functional, cell-based, HEK293
[7] = target: T3, Solute carrier family 22 member 1; assay: as §4; format: functional, cell-based, HEK293
[8] = substrate: N=C(N)NCCCCN; assay: as §3; format: functional, cell-based, HEK293
[9] = substrate: N=C(N)NCCCCN; assay: as §1; format: functional, cell-based, HEK293

Molecule | Activity [2] | Activity [3] | Km [8] | Km [9] | also measured
C[n+]1ccc(-c2ccccc2)cc1 | 32 µM | substrate [] |  |  | Activity [1]: substrate []; Activity [4]: 7.8 µM; Activity [5]: substrate []
N=C(N)NCCCCN [AGMATINE] | substrate [] | substrate [] |  |  | Ki [6]: 24 mM; Ki [7]: 8.6 mM
Solute carrier family 22 member 2 (Rattus norvegicus) (protein) MSTVDDILEHIGEFHLFQKQTFFLLALLSGAFTPIYVGIVFLGFTPDHHCWSPGAAKLSQRCGWSQAEELNYTVPGLGPSDEASFLSQCMRYEVDWNQSTLDCVDPLSSLAADRNQLPLGPCEHGWVYNTPGSSIVTEFNLVCAHSWMLDLFQSVVNVGFFIGAMMIGYLADRFGRKFCLLVTILINAISGALMAISPNYAWMLVFRFLQGLVSKAGWLIGYILITEFVGLGYRRMVGICYQIAFTVGLLILAGVAYVIPNWRWLQFAVTLPNFCFLLYFWCIPESPRWLISQNKIVKAMKIIKHIAKKNGKSVPVSLQNLTPDEDAGKKLNPSFLDLVRTPQIRKHTLILMYNWFTSSVLYQGLIMHMGLAGDNIYLDFFYSALVEFPAAFIIILTIDRVGRRYPWAVSNMVAGAACLASVFIPDDLQWLKITIACLGRMGITMAYEMVCLVNAELYPTYIRNLGVLVCSSMCDIGGIITPFLVYRLTDIWMEFPLVVFAVVGLVAGALVLLLPETKGKALPETIEDAENMQRPRKKKEKRIYLQVKQADRPLS |  |  | 950 µM |  | 
Solute carrier family 22 member 3 (Rattus norvegicus) (protein) MPTFDQALRKAGEFGRFQRRVFLLLCLTGVTFAFLFVGVVFLGSQPDYYWCRGPRATALAERCAWSPEEEWNLTTPELHVPAERRGQGHCHRYLLEDTNTSSELSCDPLAAFPNRSAPLVPCSGDWRYVETHSTIVSQFDLVCGNAWMLDLTQAILNLGFLAGAFTLGYAADRYGRLIVYLISCFGVGITGVVVAFAPNFSVFVIFRFLQGVFGKGAWMTCFVIVTEIVGSKQRRIVGIVIQMFFTLGIIILPGIAYFTPSWQGIQLAISLPSFLFLLYYWVVPESPRWLITRKQGEKALQILRRVAKCNGKHLSSNYSEITVTDEEVSNPSCLDLVRTPQMRKCTLILMFAWFTSAVVYQGLVMRLGLIGGNLYMDFFISGLVELPGALLILLTIERLGRRLPFAASNIVAGVSCLVTAFLPEGIPWLRTTVATLGRLGITMAFEIVYLVNSELYPTTLRNFGVSLCSGLCDFGGIIAPFLLFRLAAIWLELPLIIFGILASVCGGLVMLLPETKGIALPETVEDVEKLGSSQLHQCGRKKKTQVSTSNV |  |  |  | 900 µM | 
Solute carrier family 22 member 3 (Homo sapiens) (protein) MPSFDEALQRVGEFGRFQRRVFLLLCLTGVTFAFLFVGVVFLGTQPDHYWCRGPSAAALAERCGWSPEEEWNRTAPASRGPEPPERRGRCQRYLLEAANDSASATSALSCADPLAAFPNRSAPLVPCRGGWRYAQAHSTIVSEFDLVCVNAWMLDLTQAILNLGFLTGAFTLGYAADRYGRIVIYLLSCLGVGVTGVVVAFAPNFPVFVIFRFLQGVFGKGTWMTCYVIVTEIVGSKQRRIVGIVIQMFFTLGIIILPGIAYFIPNWQGIQLAITLPSFLFLLYYWVVPESPRWLITRKKGDKALQILRRIAKCNGKYLSSNYSEITVTDEEVSNPSFLDLVRTPQMRKCTLILMFAWFTSAVVYQGLVMRLGIIGGNLYIDFFISGVVELPGALLILLTIERLGRRLPFAASNIVAGVACLVTAFLPEGIAWLRTTVATLGRLGITMAFEIVYLVNSELYPTTLRNFGVSLCSGLCDFGGIIAPFLLFRLAAVWLELPLIIFGILASICGGLVMLLPETKGIALPETVDDVEKLGSPHSCKCGRNKKTPVSRSHL |  |  |  | 2500 µM | 
Solute carrier family 22 member 2 (Homo sapiens) (protein) MPTTVDDVLEHGGEFHFFQKQMFFLLALLSATFAPIYVGIVFLGFTPDHRCRSPGVAELSLRCGWSPAEELNYTVPGPGPAGEASPRQCRRYEVDWNQSTFDCVDPLASLDTNRSRLPLGPCRDGWVYETPGSSIVTEFNLVCANSWMLDLFQSSVNVGFFIGSMSIGYIADRFGRKLCLLTTVLINAAAGVLMAISPTYTWMLIFRLIQGLVSKAGWLIGYILITEFVGRRYRRTVGIFYQVAYTVGLLVLAGVAYALPHWRWLQFTVSLPNFFFLLYYWCIPESPRWLISQNKNAEAMRIIKHIAKKNGKSLPASLQRLRLEEETGKKLNPSFLDLVRTPQIRKHTMILMYNWFTSSVLYQGLIMHMGLAGDNIYLDFFYSALVEFPAAFMIILTIDRIGRRYPWAASNMVAGAACLASVFIPGDLQWLKIIISCLGRMGITMAYEIVCLVNAELYPTFIRNLGVHICSSMCDIGGIITPFLVYRLTNIWLELPLMVFGVLGLVAGGLVLLLPETKGKALPETIEEAENMQRPRKNKEKMIYLQVQKLDIPLN |  |  | 1400 µM |  | 
